Results: the NIST ThermoML archive (doi:10.1016/j.jct.2005.03.023)

Test: mn = molality of the nth substance listed, in mol/kg
Conditions: 101.3 kPa, Liquid

O=C[C@H](O)[C@@H](O)[C@H](O)CO [D-xylose] + O
mass density [kg/m3]
Conditions | m1 = 0.25 | m1 = 0.4 | m1 = 0.55 | m1 = 0.7 | m1 = 0.85 | m1 = 1
278.15 K | 1013.81 | 1021.78 | 1029.49 | 1036.97 | 1044.24 | 1051.27
288.15 K | 1012.76 | 1020.47 | 1028.02 | 1035.37 | 1042.46 | 1049.35
298.15 K | 1010.39 | 1018.06 | 1025.49 | 1032.72 | 1039.74 | 1046.52
308.15 K | 1007.15 | 1014.77 | 1022.12 | 1029.24 | 1036.18 | 1042.87
318.15 K | 1003.29 | 1010.79 | 1018.05 | 1025.13 | 1031.95 | 1038.63
